This passage reports inhibition and Activity results from ChEMBL document CHEMBL4804283, “Stk19 inhibitors for treatment of cancer” (2020).

Each structure is given as a SMILES string. The source made the active and inactive calls. No cut-off for these calls is given here.

The target in series [1] is T1, Inactive serine/threonine-protein kinase 19 (Homo sapiens) (UniProt P49842).
T1 sequence (whole entry): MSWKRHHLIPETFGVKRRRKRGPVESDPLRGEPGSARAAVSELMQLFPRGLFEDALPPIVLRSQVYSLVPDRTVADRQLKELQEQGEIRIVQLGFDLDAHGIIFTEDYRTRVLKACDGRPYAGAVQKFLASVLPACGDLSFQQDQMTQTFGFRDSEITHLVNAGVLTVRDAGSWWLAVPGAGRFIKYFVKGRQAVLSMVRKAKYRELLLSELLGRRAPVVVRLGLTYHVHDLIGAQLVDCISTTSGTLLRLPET
As to the kind of experiment: Inhibition of STK19 in human WM2032 cells expressing NRAS Q61R and wild-type BRAF at 300 nM assessed as NRAS phosphorylation relative to control. The class given is cell-based.

Another series concerns UACC-62. The series is described as follows: Induction of apoptosis in human UACC62 cells expressing wild-type NRAS and BRAF V600E mutant at 1-3 uM relative to control. The class given is functional, cell-based.
Series [2] has as its system hTERT. As to the kind of experiment: Inhibition of colony formation in hTERT/p53DD/CDK4 (R24C) immortal melanocytes expressing STK19 D89N mutant at 3 uM relative to control. The class given is functional. Conditions: Homo sapiens.
The target of series [3] is T1, Inactive serine/threonine-protein kinase 19 (Homo sapiens). As to the kind of experiment: Inhibition of STK19 in human WM2032 cells expressing NRAS Q61R and wild-type BRAF at 300 nM assessed as H3K9 methylation relative to control. The class given is cell-based.
Series [4] can be described thus: Toxicity in C57BL/6J mouse assessed as effect on alanine aminotransferase level at 25 mg/kg, administered twice daily for 20 days. Conditions: in vivo, 480 h. The class given is organism-based.
The target in series [5] is T1, Inactive serine/threonine-protein kinase 19 (Homo sapiens). As to the kind of experiment: Inhibition of STK19 in human WM2032 cells expressing NRAS Q61R and wild-type BRAF at 1-3 uM assessed as NRAS signaling relative to control. The class given is cell-based.
The nature of series [6]: Toxicity in C57BL/6J mouse assessed as effect on creatinine level at 25 mg/kg, administered twice daily for 20 days. The class given is organism-based. The note with it: in vivo, 480 h.
Series [7] deals with hTERT. The series is described as follows: Antitumor activity against hTERT/p53DD/CDK4 (R24C) immortal melanocytes expressing STK19 D89N mutant xenografted in nude mouse assessed as reduction in tumor formation. The class given is functional. The note with it: Homo sapiens.
Series [8] deals with T1, Inactive serine/threonine-protein kinase 19 (Homo sapiens). As to the kind of experiment: Inhibition of STK19 in human A375 cells expressing wild-type NRAS and BRAF V600E mutant at 1-3 uM assessed as NRAS signaling relative to control. The class given is cell-based. The note with it: A-375.
Series [9] has the same target. The series is described as follows: Inhibition of STK19 in human WM2032 cells expressing NRAS Q61R and wild-type BRAF at 100 nM assessed as NRAS phosphorylation relative to control. The class given is cell-based.
Series [10] has the same target. The series is described as follows: Inhibition of STK19 in human SK-MEL-2 cells expressing NRAS Q61R and wild-type BRAF at 300 nM assessed as H3K9 methylation relative to control. The class given is cell-based.
Another series deals with SK-MEL-2. As to the kind of experiment: Antitumor activity against human SK-MEL-2 cells xenografted in nude mouse assessed as induction of apoptosis at 50 mg/kg, administered for 21 days. The class given is functional, organism-based.
The nature of series [11]: Toxicity in C57BL/6J mouse assessed as effect on animal body weight at 25 mg/kg, administered twice daily for 20 days. The class given is organism-based. The note with it: in vivo, 480 h.
The nature of series [12]: Toxicity in C57BL/6J mouse assessed as effect on total bilirubin level at 25 mg/kg, administered twice daily for 20 days. Conditions: in vivo, 480 h. The class given is organism-based.
Series [13] is described as follows: Toxicity in C57BL/6J mouse assessed as kidney histology at 25 mg/kg, administered twice daily for 20 days by H and E staining method. The class given is organism-based. Conditions: in vivo, 480 h.
Series [14] addresses T1, Inactive serine/threonine-protein kinase 19 (Homo sapiens). The series is described as follows: Inhibition of STK19 in human WM2032 cells expressing NRAS Q61R and wild-type BRAF at 100 nM assessed as H3K9 methylation relative to control. The class given is cell-based.
Series [15] is described as follows: Toxicity in C57BL/6J mouse assessed as brain histology at 25 mg/kg, administered twice daily for 20 days by H and E staining method. The class given is organism-based. Conditions: in vivo, 480 h.
Series [16] addresses T2, Histone-lysine N-methyltransferase EHMT2 (Homo sapiens) (UniProt Q96KQ7).
T2 sequence (whole entry): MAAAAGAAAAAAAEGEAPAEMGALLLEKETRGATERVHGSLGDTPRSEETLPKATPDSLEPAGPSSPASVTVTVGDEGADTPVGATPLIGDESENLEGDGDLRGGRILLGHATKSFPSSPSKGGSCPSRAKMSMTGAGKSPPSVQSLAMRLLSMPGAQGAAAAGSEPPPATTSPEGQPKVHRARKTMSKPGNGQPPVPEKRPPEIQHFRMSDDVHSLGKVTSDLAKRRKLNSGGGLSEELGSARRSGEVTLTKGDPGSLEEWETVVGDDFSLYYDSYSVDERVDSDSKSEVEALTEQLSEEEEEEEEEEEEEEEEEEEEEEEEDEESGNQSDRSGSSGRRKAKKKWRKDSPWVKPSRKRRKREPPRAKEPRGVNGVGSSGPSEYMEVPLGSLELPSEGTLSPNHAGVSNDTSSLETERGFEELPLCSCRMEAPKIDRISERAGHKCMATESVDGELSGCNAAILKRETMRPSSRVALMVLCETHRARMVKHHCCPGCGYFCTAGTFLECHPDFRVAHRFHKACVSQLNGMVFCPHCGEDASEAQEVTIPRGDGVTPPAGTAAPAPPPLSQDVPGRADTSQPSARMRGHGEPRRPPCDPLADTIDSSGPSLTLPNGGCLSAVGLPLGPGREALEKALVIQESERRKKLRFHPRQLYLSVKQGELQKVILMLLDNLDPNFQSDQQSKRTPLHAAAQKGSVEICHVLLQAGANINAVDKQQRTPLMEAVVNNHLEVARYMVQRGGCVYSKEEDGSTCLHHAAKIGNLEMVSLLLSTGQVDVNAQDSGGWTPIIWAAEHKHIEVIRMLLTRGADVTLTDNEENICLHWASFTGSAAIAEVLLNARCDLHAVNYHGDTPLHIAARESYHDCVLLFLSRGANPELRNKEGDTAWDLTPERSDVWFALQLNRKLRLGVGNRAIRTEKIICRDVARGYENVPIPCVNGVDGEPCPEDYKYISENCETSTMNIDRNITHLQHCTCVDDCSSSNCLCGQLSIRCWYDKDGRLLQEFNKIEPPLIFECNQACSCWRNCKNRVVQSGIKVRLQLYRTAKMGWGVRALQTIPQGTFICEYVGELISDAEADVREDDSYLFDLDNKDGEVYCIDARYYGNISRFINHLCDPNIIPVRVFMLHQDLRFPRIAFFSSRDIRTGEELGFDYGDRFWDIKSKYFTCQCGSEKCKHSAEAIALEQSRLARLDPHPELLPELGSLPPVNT
As to the kind of experiment: Inhibition of G9a in human WM2032 cells expressing NRAS Q61R and wild-type BRAF at 100-300 nM relative to control. The class given is cell-based.

The test system of a further series is A-375. The series is described as follows: Induction of apoptosis in human A375 cells expressing wild-type NRAS and BRAF V600E mutant at 1-3 uM relative to control. The class given is functional, cell-based.
A short description of series [17]: Toxicity in C57BL/6J mouse assessed as liver histology at 25 mg/kg, administered twice daily for 20 days by H and E staining method. The class given is organism-based. The note with it: in vivo, 480 h.
Series [18] has as its target T1, Inactive serine/threonine-protein kinase 19 (Homo sapiens). As to the kind of experiment: Inhibition of STK19 in human SK-MEL-2 cells expressing NRAS Q61R and wild-type BRAF at 100 nM assessed as H3K9 methylation relative to control. The class given is cell-based.

For the compound `COc1cc2nc(NC3CC3)nc(NC3CCN(C(C)C)CC3)c2cc1OC.O=C(O)C(F)(F)F`, the inhibition entry in series [1], in series [5] and in series [9] was “Active” each time. In addition, the result in the series with UACC-62 and with A-375 was inactive. Further, the result in the series on hTERT [2], in the series with hTERT [7] and in the series on SK-MEL-2 was Active. The inhibition result in series [3], in series [8], in [10], in series [14], in [16] and in [18] was “inactive” throughout. The Activity entry in [4], in series [6], in series [11], in series [12], in series [13] and in series [15] was “Non-Toxic” throughout. Besides, the Activity result in series [17] is reported as “Non-Toxic”.
